From patent US10556865B2, “Synergistic herbicidal composition containing certain pyridine or pyrimidine carboxylic acids and certain cereal and rice herbicides” (Dow AgroSciences, LLC, priority 2007, dated 2020)
Where two headings read alike, the source gives them in different places.

What was measured:
[1] = test system: Echinochloa species (ECHSS); experiment: Herbicidal mixtures for weed control in transplanted paddy rice (in-water application, visual % injury after 3 weeks); assay type: in vivo; conditions: for % Injury ECHCG Ob: ECHCG = Echinochloa crus-galli; for % Injury ECHOR Ob: ECHOR = Echinocloa oryzoides
Procedure, shortened: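 Weeds were sown in puddled mineral soil (pH about 7.3 to 7.8, about 1.0 percent organic matter) and grown under a paddy flood in a greenhouse at about 29/26° C to the second or third true leaf stage. Compounds in acetone with Agri-dex crop oil were injected into the floodwater. Injury was rated visually after 3 weeks.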

[2] = test system: chickweed (Stellaria media L; STEME); experiment: Postemergence herbicidal activity of mixtures in cereal crops (greenhouse, visual injury); assay type: in vivo; conditions: for pest or weed control at 140 g/ha / pest or weed control at 8.75 g/ha / pest or weed control at 17.5 g/ha / pest or weed control at 35 g/ha / pest or weed control at 70 g/ha: Stellaria media, post-emergence, read-out: STEME Ob
Procedure, shortened: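 Injury ratings (0–100%) taken 20–22 days post-spray versus solvent-blank controls. Treatment: 187 L/ha track spray, 2nd–3rd leaf plants, Compound A/B with second cereal herbicide.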

[3] = Compound A TEA 35 g/ha alone (Table 111)

`O=C(O)c1c(Cl)ccc2cc(Cl)cnc12` [Quinclorac] was tested, and the “% Injury ECHCG Ob” value ([1]; Quinclorac 70 g/ha alone) was 0%, the “% Injury ECHCG Ob” value ([1]; Quinclorac 140 g/ha alone) was 0% and the “% Injury ECHOR Ob” value ([1]; Quinclorac 70 g/ha alone) was 0%. It also gave a pest or weed control at 140 g/ha ([2]; 140 g/ha alone) of 0%.

For `COc1c(Cl)ccc(-c2cc(N)c(Cl)c(C(=O)O)n2)c1F` [Compound A TEA, 4-amino-3-chloro-6-(4-chloro-2-fluoro-3-methoxyphenyl)pyridine-2-carboxylic acid], the “% Injury ECHCG Ob” value ([1]; Compound A TEA 17.5 g/ha alone) was 10%, the “% Injury ECHCG Ob” value ([1]; Compound A TEA 35 g/ha alone) was 80% and the “% Injury ECHCG Ob” value [1, 3] was 10%. For the same molecule, the “% Injury Ob” value ([1]; ECHCG, 70 g/ha alone) was 50%, the “% Injury ECHOR Ob” value ([1]; Compound A TEA 17.5 g/ha alone (Table 113)) was 0% and the “% Injury ECHOR Ob” value [1, 3] was 10%. The “% Injury ECHOR Ob” value ([1]; Compound A TEA 35 g/ha alone (Table 113)) was 10%, the “STEME Ob” value ([2]; 70 g/ha alone) was 93% and the pest or weed control at 8.75 g/ha ([2]; 8.75 g/ha alone) was 80%. It also gave a pest or weed control at 8.75 g/ha ([2]; 8.75 g/ha) of 80%, a pest or weed control at 17.5 g/ha ([2]; 17.5 g/ha alone) of 85% and a pest or weed control at 17.5 g/ha ([2]; 17.5 g/ha) of 85%. It also gave a pest or weed control at 35 g/ha ([2]; 35 g/ha alone) of 88%, a pest or weed control at 70 g/ha ([2]; 70 g/ha alone) of 93% and a pest or weed control at 140 g/ha ([2]; 140 g/ha) of 65%.

With `COC(=O)c1nc(-c2ccc(Cl)c(OC)c2F)cc(N)c1Cl` [Compound A Methyl, 4-amino-3-chloro-6-(4-chloro-2-fluoro-3-methoxyphenyl)pyridine-2-carboxylic acid methyl ester] the “% Injury Ob” value ([1]; ECHCG, 4.38 g/ha alone) was 0%, the “% Injury Ob” value ([1]; ECHCG, 17.5 g/ha alone) was 0% and the “% Injury Ob” value ([1]; ECHCG, 35 g/ha alone) was 25%. The “% Injury Ob” value ([1]; ECHCO, 8.75 g/ha alone) was 0%, the “% Injury Ob” value ([1]; ECHCO, 17.5 g/ha alone) was 25% and the “% Injury Ob” value ([1]; ECHCO, 35 g/ha alone) was 20%. The “% Injury ECHOR Ob” value ([1]; Compound A Methyl 17.5 g/ha alone) was 0%, the “% Injury ECHOR Ob” value ([1]; Compound A Methyl 35 g/ha alone) was 10% and the pest or weed control at 17.5 g/ha ([2]; 17.5 g/ha) was 78%. It also gave a pest or weed control at 35 g/ha ([2]; 35 g/ha) of 90% and a pest or weed control at 70 g/ha ([2]; 70 g/ha) of 100%.
